Patent US20100210567A1, “USE OF A TUFTSIN AS A THERAPEUTIC AGENT” (priority 2007, published 2010)
Residues, ends and D or L forms follow the SMILES beside them.

System: drug-resistant Mycobacterium tuberculosis
Conditions: peptide 10 micrograms per ml, seven days

With C[C@@H](O)[C@H](N)C(=O)N[C@@H](CCCCN)C(=O)N1CCC[C@H]1C(=O)N[C@@H](CCCNC(=N)N)C(=O)O [Tuftsin, Thr-Lys-Pro-Arg-OH] (H-TKPR-OH) the “% inhibition” value was 0.0%.
